Test results as given in US9695155B2, “Herbicidal substituted pyrimidinyloxy benzene compounds” (E. I. DU PONT DE NEMOURS AND COMPANY, priority 2013, dated 2017).

What was measured:
sandbur = assay: Test E postemergence; assay type: in vivo, Cenchrus echinatus; details: Cenchrus echinatus, post-emergence, read-out: Plant response rating, Sandbur
Method in brief: (§1)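 Compound in a non-phytotoxic solvent mixture with surfactant was applied preemergence to seeds in silt loam soil, or postemergence to plants 2 to 18 cm tall grown in peat-based potting medium. Plants were kept in a greenhouse for 14 to 21 days, then rated visually against untreated controls on a 0 (no effect) to 100 (complete control) scale.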

corn = assay: Test E postemergence; assay type: in vivo, Zea mays; details: Zea mays, post-emergence
Method in brief: as §1

Italian ryegrass = assay: Test E preemergence; assay type: in vivo, Lolium multiflorum; details: for Ryegrass, Italian plant response rating: scale 0 to 100 (0 no effect, 100 complete control); for Plant response rating, Ryegrass, Italian: scale 0 to 100, 0 no effect, 100 complete control
Method in brief: as §1

lambsquarters = assay: Test E preemergence; assay type: in vivo, Chenopodium album; details: for Lambsquarters plant response rating: scale 0 to 100 (0 no effect, 100 complete control); for Plant response rating, Lambsquarters: scale 0 to 100, 0 no effect, 100 complete control
Method in brief: as §1

hairy beggarticks = assay: Test E postemergence; assay type: in vivo, Bidens pilosa; details: Bidens pilosa, post-emergence, read-out: Plant response rating, Beggarticks
Method in brief: as §1

kochia = assay: Test E preemergence; assay type: in vivo, Kochia scoparia; details: for Kochia plant response rating: scale 0 to 100 (0 no effect, 100 complete control); for Plant response rating, Kochia: scale 0 to 100, 0 no effect, 100 complete control
Method in brief: as §1

morningglory = assay: Test E preemergence; assay type: in vivo, Ipomoea coccinea; details: for Morningglory plant response rating: scale 0 to 100 (0 no effect, 100 complete control); for Plant response rating, Morningglory: scale 0 to 100, 0 no effect, 100 complete control
Method in brief: as §1

palmer pigweed [1] = assay: Test E preemergence; assay type: in vivo, Amaranthus palmeri; details: for Pigweed, Palmer plant response rating: scale 0 to 100 (0 no effect, 100 complete control); for Plant response rating, Pigweed, Palmer: scale 0 to 100, 0 no effect, 100 complete control
Method in brief: as §1

fall panicum = assay: Test E postemergence; assay type: in vivo, Panicum dichotomiflorum; details: Panicum dichotomiflorum, post-emergence, read-out: Plant response rating, Panicum, Fall
Method in brief: as §1

Brazilian crabgrass [2] = assay: Test E postemergence; assay type: in vivo, Digitaria horizontalis; details: Digitaria horizontalis, post-emergence, read-out: Plant response rating, Crabgrass, Brazil
Method in brief: as §1

palmer pigweed [3] = assay: Test E postemergence; assay type: in vivo, Amaranthus palmeri; details: post-emergence, read-out: Plant response rating, Pigweed, Palmer
Method in brief: as §1

wild poinsettia = assay: Test E postemergence; assay type: in vivo, Euphorbia heterophylla; details: Euphorbia heterophylla, post-emergence, read-out: Plant response rating, Poinsettia, Wild
Method in brief: as §1

Brazilian crabgrass [4] = assay: Test E preemergence; assay type: in vivo, Digitaria horizontalis; details: for Crabgrass, Brazil plant response rating: scale 0 to 100 (0 no effect, 100 complete control); for Plant response rating, Crabgrass, Brazil: scale 0 to 100, 0 no effect, 100 complete control
Method in brief: as §1

waterhemp [5] = assay: Test E preemergence; assay type: in vivo, Amaranthus rudis; details: for Waterhemp plant response rating: scale 0 to 100 (0 no effect, 100 complete control); for Plant response rating, Waterhemp: scale 0 to 100, 0 no effect, 100 complete control
Method in brief: as §1

field bindweed = assay: Test E postemergence; assay type: in vivo, Convolvulus arvensis; details: Convolvulus arvensis, post-emergence, read-out: Plant response rating, Field Bindweed
Method in brief: as §1

large (Lg) crabgrass = assay: Test E preemergence; assay type: in vivo, Digitaria sanguinalis; details: for Crabgrass, Large plant response rating: scale 0 to 100 (0 no effect, 100 complete control); for Plant response rating, Crabgrass, Large: scale 0 to 100, 0 no effect, 100 complete control
Method in brief: as §1

waterhemp [6] = assay: Test E postemergence; assay type: in vivo, Amaranthus rudis; details: Amaranthus tuberculatus, post-emergence, read-out: Plant response rating, Waterhemp
Method in brief: as §1

[7] = Postemergence, 31 g ai/ha, scale 0 to 100
[8] = Postemergence, 62 g ai/ha, scale 0 to 100
[9] = Postemergence, 125 g ai/ha, scale 0 to 100
[10] = postemergence, 16 g ai/ha, scale 0 to 100, 0 no effect, 100 complete control

N#Cc1cccc(Oc2ncc(Cl)cn2)c1-n1cc(Br)cn1 [Compound 52, 2-(4-bromo-1H-pyrazol-1-yl)-3-[(5-chloro-2-pyrimidinyl)oxy]benzonitrile]
pest or weed control at 31 g/ha (sandbur; [7]): 10%
pest or weed control at 62 g/ha (sandbur; [8]): 25%
pest or weed control at 125 g/ha (sandbur; [9]): 20%
pest or weed control at 16 g/ha (sandbur; [10]): 15%
corn plant response (injury) rating, 0-100 at 31 g/ha (corn; [7]): 10%
corn plant response (injury) rating, 0-100 at 62 g/ha (corn; [8]): 20%
corn plant response (injury) rating, 0-100 at 125 g/ha (corn; [9]): 25%
corn plant response (injury) rating, 0-100 at 16 g/ha (corn; [10]): 10%
Ryegrass, Italian plant response rating (Italian ryegrass; 16 g ai/ha): 0
Ryegrass, Italian plant response rating (Italian ryegrass; 31 g ai/ha): 0
Ryegrass, Italian plant response rating (Italian ryegrass; 62 g ai/ha): 0
Plant response rating, Ryegrass, Italian (Italian ryegrass; 125 g ai/ha): 60
Plant response rating, Ryegrass, Italian (Italian ryegrass; 250 g ai/ha): 90
Lambsquarters plant response rating (lambsquarters; 16 g ai/ha): 0
Lambsquarters plant response rating (lambsquarters; 31 g ai/ha): 75
Lambsquarters plant response rating (lambsquarters; 62 g ai/ha): 98
Plant response rating, Lambsquarters (lambsquarters; 125 g ai/ha): 98
Plant response rating, Lambsquarters (lambsquarters; 250 g ai/ha): 100
pest or weed control at 31 g/ha (hairy beggarticks; [7]): 60%
pest or weed control at 62 g/ha (hairy beggarticks; [8]): 70%
pest or weed control at 125 g/ha (hairy beggarticks; [9]): 75%
pest or weed control at 16 g/ha (hairy beggarticks; [10]): 30%
Kochia plant response rating (kochia; 31 g ai/ha): 25
Kochia plant response rating (kochia; 62 g ai/ha): 65
Plant response rating, Kochia (kochia; 125 g ai/ha): 100
Plant response rating, Kochia (kochia; 250 g ai/ha): 100
Morningglory plant response rating (morningglory; 16 g ai/ha): 0
Morningglory plant response rating (morningglory; 31 g ai/ha): 5
Morningglory plant response rating (morningglory; 62 g ai/ha): 35
Plant response rating, Morningglory (morningglory; 125 g ai/ha): 95
Plant response rating, Morningglory (morningglory; 250 g ai/ha): 98
Pigweed, Palmer plant response rating (palmer pigweed [1]; 16 g ai/ha): 25
Pigweed, Palmer plant response rating (palmer pigweed [1]; 31 g ai/ha): 100
Pigweed, Palmer plant response rating (palmer pigweed [1]; 62 g ai/ha): 100
Plant response rating, Pigweed, Palmer (palmer pigweed [1]; 125 g ai/ha): 100
Plant response rating, Pigweed, Palmer (palmer pigweed [1]; 250 g ai/ha): 100
pest or weed control at 31 g/ha (fall panicum; [7]): 10%
pest or weed control at 62 g/ha (fall panicum; [8]): 10%
pest or weed control at 125 g/ha (fall panicum; [9]): 40%
pest or weed control at 16 g/ha (fall panicum; [10]): 5%
pest or weed control at 31 g/ha (Brazilian crabgrass [2]; [7]): 30%
pest or weed control at 62 g/ha (Brazilian crabgrass [2]; [8]): 30%
pest or weed control at 125 g/ha (Brazilian crabgrass [2]; [9]): 40%
pest or weed control at 16 g/ha (Brazilian crabgrass [2]; [10]): 15%
pest or weed control at 31 g/ha (palmer pigweed [3]; [7]): 70%
pest or weed control at 62 g/ha (palmer pigweed [3]; [8]): 95%
pest or weed control at 125 g/ha (palmer pigweed [3]; [9]): 95%
pest or weed control at 16 g/ha (palmer pigweed [3]; [10]): 60%
pest or weed control at 31 g/ha (wild poinsettia; [7]): 40%
pest or weed control at 62 g/ha (wild poinsettia; [8]): 50%
pest or weed control at 125 g/ha (wild poinsettia; [9]): 70%
pest or weed control at 16 g/ha (wild poinsettia; [10]): 45%
Crabgrass, Brazil plant response rating (Brazilian crabgrass [4]; 16 g ai/ha): 0
Crabgrass, Brazil plant response rating (Brazilian crabgrass [4]; 31 g ai/ha): 90
Crabgrass, Brazil plant response rating (Brazilian crabgrass [4]; 62 g ai/ha): 100
Plant response rating, Crabgrass, Brazil (Brazilian crabgrass [4]; 125 g ai/ha): 100
Plant response rating, Crabgrass, Brazil (Brazilian crabgrass [4]; 250 g ai/ha): 100
Waterhemp plant response rating (waterhemp [5]; 16 g ai/ha): 80
Waterhemp plant response rating (waterhemp [5]; 31 g ai/ha): 100
Waterhemp plant response rating (waterhemp [5]; 62 g ai/ha): 100
Plant response rating, Waterhemp (waterhemp [5]; 125 g ai/ha): 100
Plant response rating, Waterhemp (waterhemp [5]; 250 g ai/ha): 100
pest or weed control at 31 g/ha (field bindweed; [7]): 50%
pest or weed control at 62 g/ha (field bindweed; [8]): 65%
pest or weed control at 125 g/ha (field bindweed; [9]): 65%
pest or weed control at 16 g/ha (field bindweed; [10]): 50%
Crabgrass, Large plant response rating (large (Lg) crabgrass; 16 g ai/ha): 0
Crabgrass, Large plant response rating (large (Lg) crabgrass; 31 g ai/ha): 35
Crabgrass, Large plant response rating (large (Lg) crabgrass; 62 g ai/ha): 98
Plant response rating, Crabgrass, Large (large (Lg) crabgrass; 125 g ai/ha): 100
Plant response rating, Crabgrass, Large (large (Lg) crabgrass; 250 g ai/ha): 100
pest or weed control at 31 g/ha (waterhemp [6]; [7]): 70%
pest or weed control at 62 g/ha (waterhemp [6]; [8]): 75%
pest or weed control at 125 g/ha (waterhemp [6]; [9]): 95%
pest or weed control at 16 g/ha (waterhemp [6]; [10]): 65%
